Experimental data: ChEMBL document CHEMBL5104139, “A critical update on the strategies towards small molecule inhibitors targeting Serine/arginine-rich (SR) proteins and Serine/arginine-rich proteins related kinases in alternative splicing” (Bioorg Med Chem, 2022)
One block for each compound: values may come before it.

Tests used:
[1] = molecular target: T1, Serine/arginine-rich splicing factor 6 (Homo sapiens, UniProt Q13247); assay: Inhibition of SRSF6 (unknown origin)
T1 sequence (Q13247 whole entry): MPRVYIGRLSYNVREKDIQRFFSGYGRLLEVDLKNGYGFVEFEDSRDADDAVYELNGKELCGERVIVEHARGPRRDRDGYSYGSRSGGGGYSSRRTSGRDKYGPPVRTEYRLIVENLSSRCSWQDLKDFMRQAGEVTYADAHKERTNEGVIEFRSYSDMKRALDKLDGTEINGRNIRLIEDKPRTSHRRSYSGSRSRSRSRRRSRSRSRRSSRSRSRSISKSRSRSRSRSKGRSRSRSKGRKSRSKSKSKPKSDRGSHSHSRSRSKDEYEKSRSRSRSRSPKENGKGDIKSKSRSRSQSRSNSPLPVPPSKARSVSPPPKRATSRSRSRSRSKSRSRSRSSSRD

[2] = molecular target: Cyclin-dependent kinase 5 (Homo sapiens, UniProt Q00535); assay: Inhibition of CDK5 (unknown origin)
[3] = molecular target: T2, Dual specificity tyrosine-phosphorylation-regulated kinase 1A (Homo sapiens, UniProt Q13627)
[4] = molecular target: Glycogen synthase kinase-3 (Homo sapiens, UniProt P49840+P49841); assay: Inhibition of GSK3 (unknown origin); assay type: protein assay
[5] = tested on: K562; assay: Cytotoxicity against human K562 cells; assay type: functional, cell-based
[6] = molecular target: SRSF protein kinase 2 (Homo sapiens, UniProt P78362)
[7] = tested on: HL-60; assay: Cytotoxicity against HL-60 cells; assay type: functional, cell-based; settings: Homo sapiens
[8] = molecular target: T2, Dual specificity tyrosine-phosphorylation-regulated kinase 1A; assay: Inhibition of DYRK1A (unknown origin) at 1 uM relative to control
[9] = molecular target: Dual specificity protein kinase CLK2 (Homo sapiens, UniProt P49760)
[10] = molecular target: SRSF protein kinase 1 (Homo sapiens, UniProt Q96SB4)
Chain of SRSF protein kinase 1 (Q96SB4 whole entry): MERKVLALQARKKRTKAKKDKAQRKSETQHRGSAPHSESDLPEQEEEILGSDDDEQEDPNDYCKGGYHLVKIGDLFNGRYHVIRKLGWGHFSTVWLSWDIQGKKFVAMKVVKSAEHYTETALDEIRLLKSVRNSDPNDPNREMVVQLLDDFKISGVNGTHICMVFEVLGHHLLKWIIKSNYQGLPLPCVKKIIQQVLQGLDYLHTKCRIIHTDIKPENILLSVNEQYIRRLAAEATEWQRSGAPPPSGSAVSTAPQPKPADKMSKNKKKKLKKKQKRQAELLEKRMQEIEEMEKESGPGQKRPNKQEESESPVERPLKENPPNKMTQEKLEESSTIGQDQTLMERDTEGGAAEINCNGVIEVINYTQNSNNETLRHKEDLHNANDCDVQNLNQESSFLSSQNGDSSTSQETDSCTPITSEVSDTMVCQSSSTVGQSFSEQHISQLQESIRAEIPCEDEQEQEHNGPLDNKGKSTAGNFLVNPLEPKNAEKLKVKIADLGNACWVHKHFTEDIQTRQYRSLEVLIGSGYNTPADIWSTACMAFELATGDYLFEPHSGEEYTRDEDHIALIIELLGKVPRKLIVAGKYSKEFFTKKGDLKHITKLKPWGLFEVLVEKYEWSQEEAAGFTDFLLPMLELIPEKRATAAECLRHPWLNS

Chain of Cyclin-dependent kinase 5 (Q00535 whole entry): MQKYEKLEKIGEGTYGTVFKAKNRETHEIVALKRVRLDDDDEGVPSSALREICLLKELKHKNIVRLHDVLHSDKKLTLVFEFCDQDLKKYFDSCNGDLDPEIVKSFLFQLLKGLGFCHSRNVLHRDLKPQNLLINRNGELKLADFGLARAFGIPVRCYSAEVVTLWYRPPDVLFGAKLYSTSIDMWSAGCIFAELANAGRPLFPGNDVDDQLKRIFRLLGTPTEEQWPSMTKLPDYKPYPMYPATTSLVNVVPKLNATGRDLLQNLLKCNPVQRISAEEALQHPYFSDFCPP
Chain of SRSF protein kinase 2 (P78362 whole entry): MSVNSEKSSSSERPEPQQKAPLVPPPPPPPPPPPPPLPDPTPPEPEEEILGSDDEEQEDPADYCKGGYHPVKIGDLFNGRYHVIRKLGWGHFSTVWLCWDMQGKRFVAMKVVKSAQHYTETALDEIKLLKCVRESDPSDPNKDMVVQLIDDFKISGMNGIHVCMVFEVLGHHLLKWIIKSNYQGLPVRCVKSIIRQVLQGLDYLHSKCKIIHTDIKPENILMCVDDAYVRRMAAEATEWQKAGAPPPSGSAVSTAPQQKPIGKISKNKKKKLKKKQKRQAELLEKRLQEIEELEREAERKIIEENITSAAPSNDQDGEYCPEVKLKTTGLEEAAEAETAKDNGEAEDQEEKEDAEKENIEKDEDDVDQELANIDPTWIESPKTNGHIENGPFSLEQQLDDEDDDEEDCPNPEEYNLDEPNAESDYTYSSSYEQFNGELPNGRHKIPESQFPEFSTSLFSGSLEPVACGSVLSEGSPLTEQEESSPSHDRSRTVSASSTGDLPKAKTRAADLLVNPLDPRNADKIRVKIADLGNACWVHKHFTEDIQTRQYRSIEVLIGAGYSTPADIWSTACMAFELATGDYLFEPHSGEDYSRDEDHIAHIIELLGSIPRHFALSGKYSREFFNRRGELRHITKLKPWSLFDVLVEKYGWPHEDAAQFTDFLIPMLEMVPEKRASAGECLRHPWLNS
Chain of Dual specificity protein kinase CLK2 (P49760 whole entry): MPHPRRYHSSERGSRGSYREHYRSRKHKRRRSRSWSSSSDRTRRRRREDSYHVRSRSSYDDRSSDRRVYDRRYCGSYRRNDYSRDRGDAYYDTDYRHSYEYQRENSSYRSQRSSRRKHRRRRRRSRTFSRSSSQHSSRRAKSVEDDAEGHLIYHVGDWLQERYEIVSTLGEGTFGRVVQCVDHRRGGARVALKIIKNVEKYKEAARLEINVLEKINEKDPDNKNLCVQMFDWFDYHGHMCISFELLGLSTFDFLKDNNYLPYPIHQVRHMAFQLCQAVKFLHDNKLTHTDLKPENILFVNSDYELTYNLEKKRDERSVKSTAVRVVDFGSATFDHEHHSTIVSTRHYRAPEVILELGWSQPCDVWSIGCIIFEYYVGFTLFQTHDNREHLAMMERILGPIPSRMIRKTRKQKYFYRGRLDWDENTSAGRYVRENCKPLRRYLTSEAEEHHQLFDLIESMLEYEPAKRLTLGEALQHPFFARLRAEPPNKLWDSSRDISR

IC50 [1]: 19000 nM
Structure (SMILES): CCc1cc2c(cc1CC)CC(NC[C@H](O)c1ccc(O)c3[nH]c(=O)ccc13)C2 [INDACATEROL]

IC50 [2]: 2700 nM | IC50 [3]: 74 nM | IC50 [4]: 380 nM
Structure (SMILES): C.O=c1oc2cc(O)ccc2c2c1[nH]c1ccccc12

IC50 [2]: 720 nM | IC50 [3]: 67 nM | IC50 [4]: 310 nM
Structure (SMILES): O=c1oc2cc(O)ccc2c2c1[nH]c1ccc(O)cc12

IC50 [6]: 203 nM
Structure (SMILES): COc1cc(/C=C2/C(=N)N3N=C(C(F)(F)F)SC3=NC2=O)ccc1O
IC50 [5]: 44700 nM | IC50 [7]: 44700 nM

inhibition [8]: 84%
Structure (SMILES): c1cc(-c2ccc3[nH]ncc3c2)ccn1

IC50 [9]: 2700 nM
Structure (SMILES): O=C(Oc1cc(O)c2c(c1)OC(c1cc(O)c(O)c(O)c1)CC2)c1cc(O)c(O)c(O)c1 (stereo not drawn)

Structure (SMILES): O=C(Nc1cc(C(F)(F)F)ccc1N1CCCCC1)c1ccncc1
IC50 [10]: 890 nM
